Source: patent publication US20110112132A1, “MEANS FOR THE TREATMENT OF ACUTE AND CHRONIC DISORDERS OF CEREBRAL CIRCULATION, INCLUDING INSULT, BASED ON HYDROGENATED PYRIDO (4,3-B) INDOLES (VARIANTS), PHARMACOLOGICAL MEANS BASED THEREON AND METHOD FOR THE USE THEREOF” (Medivation Neurology, Inc., priority 2006, published 2011)
Counter-ions that a name gives are not always drawn. Marks after values point to notes of the source that are not given here.

How the values were obtained:
[1] = tested on: rats with hemorrhagic insult; assay: Intracerebral post-traumatic hematoma (hemorrhagic insult) model: death of animals; format: in vivo, rat; conditions: 0.1 mg/kg i.p.; entire period of observation
Description: (§1) The study was performed in accordance with the “Methodological instructions for the experimental study of preparations for the treatment of cerebral circulation and migraine,” in “Handbook on the experimental (preclinical) study of new pharmacological substances,” Meditsina, Moscow, 2005, pp. 332-338, as modified by A. N. Makarenko et al. (“Method for modeling local hemorrhage in various brain structures in experimental animals,” Zh. vyssh. nervn. deyat. (2002) 52(6):765-768).
The experiments were performed on cross-bred male white rats weighing 200-250 g, kept in a vivarium with free access to food (standard pelleted feed) and water, and with natural alternation of day and night. […]
The animals were divided into 4 groups: sham-operated, a group of animals with hemorrhagic insult, animals with hemorrhagic insult which received dimebon intraperitoneally at a dose of 0.1 mg/kg, and animals with hemorrhagic insult which received nimodipine intraperitoneally at a dose of 0.1 mg/kg. The effects of the substances were recorded 24 hours, and 3, 7 and 14 days after operation. […]
Rat deaths were recorded over the entire 14 day period of observation. […]

[2] = tested on: AMPA receptors; conditions: rat brain neurons; cited from earlier work
[3] = tested on: rats with hemorrhagic insult; assay: Intracerebral post-traumatic hematoma (hemorrhagic insult) model: neurological deficit, McGraw Stroke index; format: in vivo, rat
Description: as §1
The experiments were performed on cross-bred male white rats weighing 200-250 g, kept in a vivarium with free access to food (standard pelleted feed) and water, and with natural alternation of day and night. Using a special device (mandrin-knife) and stereotaxis, brain tissue of rats anesthetized with nembutal (40 mg/kg, i/m) was destroyed in the region of the capsule interna, with subsequent (after 2-3 minutes) introduction into the damage site of blood taken from under the rat's tongue (0.02-0.03 ml). Scalping and trepanning of the skull were performed on sham-operated animals.
The animals were divided into 4 groups: sham-operated, a group of animals with hemorrhagic insult, animals with hemorrhagic insult which received dimebon intraperitoneally at a dose of 0.1 mg/kg, and animals with hemorrhagic insult which received nimodipine intraperitoneally at a dose of 0.1 mg/kg. The effects of the substances were recorded 24 hours, and 3, 7 and 14 days after operation.
Dimebon and nimodipine were administered intraperitoneally to animals with insult in an identical dose of 0.1 mg/kg 3-3.5 hours after operation, and then daily for 14 days after operation. An equal volume of physiological saline was administered intraperitoneally to the control groups of animals at identical intervals. Each group consisted of 9-18 animals at the start of the experiment.
The neurological deficit in the animals was determined using the McGraw Stroke index as modified by I. V. Gannushkina (Functional angioarchitectonics of the brain (1977) (Moscow, Meditsina) p. 224). The severity of the condition was determined from the sum of the corresponding scores. The number of rats with mild symptoms up to 2.5 points on the Stroke-index scale (sluggish movements, limb weakness, unilateral hemiptosis, tremor, circular movements) and with severe manifestations of neurological impairment (from 3 to 10 points)—limb paresis, paralysis of lower limbs, lateral position, was noted.

[4] = tested on: rats with cerebral ischemia induced by ligation of the carotid arteries; assay: Rat brain ischemia by ligation of the carotid arteries: neurological deficit, McGraw Stroke index; format: in vivo; conditions: 0.1 mg/kg i.p.
Description: Rat brain ischemia, produced by irreversible occlusion of the carotid arteries, was performed in accordance with “Methodological instructions for the experimental study of preparations for the treatment of cerebral circulation and migraine,” in “Handbook on the experimental (preclinical) study of new pharmacological substances,” Meditsina, Moscow, 2005, pp. 332-338.
Experiments were performed on cross-bred male white rats weighing 200-250 g, anesthetized with chloral hydrate (350 mg/kg, i/p). Irreversible single-step bilateral ligation of the common carotid arteries was performed on the animals. In the group of sham-operated animals, the ligatures were applied to the vessels but were not tightened.
After completing the operation, the animals were divided randomly into groups: group one rats were given dimebon intraperitoneally at 0.1 mg/kg administered 30 minutes after the ligature was tied, then daily for 14 days after operation; group two rats were given nimodipine intraperitoneally at 0.1 mg/kg administered 30 minutes after the ligature was tied, then daily for 14 days after operation. Group one and group two animals were experiencing an acute cerebral circulation disturbance at the time of drug administration. Control group and sham-operated animals were given equivalent volumes of physiological saline (0.9% sodium chloride) at the same times.
Neurological deficit in animals with cerebral ischemia induced by ligation of the carotid arteries was determined using the McGraw Stroke index as modified by I. V. Gannushkina (Functional angioarchitectonics of the brain (1977) (Moscow, Meditsina) p. 224). The severity of the condition was determined from the sum of the corresponding scores. The number of rats with mild symptoms up to 2.5 points on the Stroke-index scale (sluggish movements, limb weakness, hemiptosis, tremor, circular movements) and with severe manifestations of neurological impairment (from 3 to 10 points)—limb paresis, paralysis of lower limbs, lateral position, was noted.

[5] = tested on: NMDA receptors; conditions: rat brain neurons; cited from earlier work
[6] = 24 hours after operation (hemorrhagic insult), 0.1 mg/kg i.p.
[7] = 14 days after operation (hemorrhagic insult), 0.1 mg/kg i.p. daily

SMILES: Cc1ccc2c(c1)c1c(n2CCc2ccc(C)nc2)CCN(C)C1 [dimebon, 2,8-dimethyl-5-[2-(6-methyl-pyridyl-3-)ethyl]2,3,4,5-tetrahydro-1H-pyrido[4,3-b]indole dihydrochloride]
- Effect on death of animals after hemorrhagic insult, in words [1]: almost completely prevented the death of animals
- Effect on transmembrane currents induced by the activation of AMPA receptors, in words [2]: potentiates the transmembrane currents
- Effect on number of animals with pareses after hemorrhagic insult, in words ([3]; 0.1 mg/kg i.p., first day of observation): almost halving the number of animals with pareses
- Number of animals with circular movements [3, 6]: 33%
- Number of animals with limb weakness [3, 6]: 66%
- Number of animals with paresis of 1-4 limbs [3, 6]: 33%
- Number of animals with sluggish, slow movements [3, 6]: 88%
- Number of animals with circular movements [3, 7]: 0%
- Number of animals with limb weakness [3, 7]: 7%
- Number of animals with paresis of 1-4 limbs [3, 7]: 0%
- Number of animals with sluggish, slow movements [3, 7]: 7%
- Effect on neurological deficit in rats with ischemia, in words ([4]; first and particularly seventh day after operation): prevented the development of neurological deficit
- Number of animals with bilateral hemiptosis ([4]; 1 day after ischemic insult): 33.3* %
- Number of animals with limb weakness ([4]; 1 day after ischemic insult): 16.7%
- Number of animals with sluggish, slow movements ([4]; 1 day after ischemic insult): 33.3* %
- Number of animals with unilateral hemiptosis ([4]; 1 day after ischemic insult): 16.7%
- Number of animals with bilateral hemiptosis ([4]; 3 days after ischemic insult): 25.0* %
- Number of animals with limb weakness ([4]; 3 days after ischemic insult): 16.7%
- Number of animals with sluggish, slow movements ([4]; 3 days after ischemic insult): 33.3%
- Number of animals with unilateral hemiptosis ([4]; 3 days after ischemic insult): 0%
- Number of animals with bilateral hemiptosis ([4]; 7 days after ischemic insult): 9.1* %
- Number of animals with limb weakness ([4]; 7 days after ischemic insult): 9.1%
- Number of animals with sluggish, slow movements ([4]; 7 days after ischemic insult): 9.1* %
- Number of animals with unilateral hemiptosis ([4]; 7 days after ischemic insult): 0%
- Number of animals with bilateral hemiptosis ([4]; 14 days after ischemic insult): 0%
- Number of animals with limb weakness ([4]; 14 days after ischemic insult): 0%
- Number of animals with sluggish, slow movements ([4]; 14 days after ischemic insult): 0%
- Number of animals with unilateral hemiptosis ([4]; 14 days after ischemic insult): 0%
- Number of animals with unilateral ptosis ([4]; 14 days after ischemic insult): 0%
- Effect on NMDA receptors, in words [5]: blocks the NMDA receptors

SMILES: COCCOC(=O)C1=C(C)NC(C)=C(C(=O)OC(C)C)C1c1cccc([N+](=O)[O-])c1 (stereo not shown) [nimodipine, reference compound]
- Number of animals with circular movements [3, 6]: 25%
- Number of animals with limb weakness [3, 6]: 50%
- Number of animals with paresis of 1-4 limbs [3, 6]: 25* %
- Number of animals with sluggish, slow movements [3, 6]: 50%
- Number of animals with circular movements [3, 7]: 0%
- Number of animals with limb weakness [3, 7]: 0%
- Number of animals with paresis of 1-4 limbs [3, 7]: 0* %
- Number of animals with sluggish, slow movements [3, 7]: 16.6%
- Number of animals with bilateral hemiptosis ([4]; 1 day after ischemic insult): 50%
- Number of animals with limb weakness ([4]; 1 day after ischemic insult): 20%
- Number of animals with sluggish, slow movements ([4]; 1 day after ischemic insult): 50%
- Number of animals with unilateral hemiptosis ([4]; 1 day after ischemic insult): 20%
- Number of animals with bilateral hemiptosis ([4]; 3 days after ischemic insult): 20* %
- Number of animals with limb weakness ([4]; 3 days after ischemic insult): 0%
- Number of animals with sluggish, slow movements ([4]; 3 days after ischemic insult): 30%
- Number of animals with unilateral hemiptosis ([4]; 3 days after ischemic insult): 20%
- Number of animals with bilateral hemiptosis ([4]; 7 days after ischemic insult): 20* %
- Number of animals with limb weakness ([4]; 7 days after ischemic insult): 10%
- Number of animals with sluggish, slow movements ([4]; 7 days after ischemic insult): 0%
- Number of animals with unilateral hemiptosis ([4]; 7 days after ischemic insult): 0%
- Number of animals with bilateral hemiptosis ([4]; 14 days after ischemic insult): 0%
- Number of animals with limb weakness ([4]; 14 days after ischemic insult): 0%
- Number of animals with sluggish, slow movements ([4]; 14 days after ischemic insult): 0%
- Number of animals with unilateral hemiptosis ([4]; 14 days after ischemic insult): 0%
- Number of animals with unilateral ptosis ([4]; 14 days after ischemic insult): 0%
